From ChEMBL document CHEMBL3593204, “Discovery of substituted 1,4-dihydroquinolines as novel class of ABCB1 modulators” (Bioorg Med Chem, 2015)
Values belong to the compound of their own block, whether it stands above or below them. Calls of active or inactive are those of the source. No cut-off for these calls is given here.

Tests used:
[1] = target: T1, ATP-dependent translocase ABCB1 (Homo sapiens, UniProt P08183); experiment: Inhibition of human ABCB1 expressed in mouse L5178Y cells using rhodamine 123 as substrate assessed as ratio of fluorescent intensity in ABCB1 expressing L5178Y cells to wild type L5178Y cells at 1 uM after 20 mins by flow cytometry; assay type: cell-based
T1 sequence (P08183 whole entry): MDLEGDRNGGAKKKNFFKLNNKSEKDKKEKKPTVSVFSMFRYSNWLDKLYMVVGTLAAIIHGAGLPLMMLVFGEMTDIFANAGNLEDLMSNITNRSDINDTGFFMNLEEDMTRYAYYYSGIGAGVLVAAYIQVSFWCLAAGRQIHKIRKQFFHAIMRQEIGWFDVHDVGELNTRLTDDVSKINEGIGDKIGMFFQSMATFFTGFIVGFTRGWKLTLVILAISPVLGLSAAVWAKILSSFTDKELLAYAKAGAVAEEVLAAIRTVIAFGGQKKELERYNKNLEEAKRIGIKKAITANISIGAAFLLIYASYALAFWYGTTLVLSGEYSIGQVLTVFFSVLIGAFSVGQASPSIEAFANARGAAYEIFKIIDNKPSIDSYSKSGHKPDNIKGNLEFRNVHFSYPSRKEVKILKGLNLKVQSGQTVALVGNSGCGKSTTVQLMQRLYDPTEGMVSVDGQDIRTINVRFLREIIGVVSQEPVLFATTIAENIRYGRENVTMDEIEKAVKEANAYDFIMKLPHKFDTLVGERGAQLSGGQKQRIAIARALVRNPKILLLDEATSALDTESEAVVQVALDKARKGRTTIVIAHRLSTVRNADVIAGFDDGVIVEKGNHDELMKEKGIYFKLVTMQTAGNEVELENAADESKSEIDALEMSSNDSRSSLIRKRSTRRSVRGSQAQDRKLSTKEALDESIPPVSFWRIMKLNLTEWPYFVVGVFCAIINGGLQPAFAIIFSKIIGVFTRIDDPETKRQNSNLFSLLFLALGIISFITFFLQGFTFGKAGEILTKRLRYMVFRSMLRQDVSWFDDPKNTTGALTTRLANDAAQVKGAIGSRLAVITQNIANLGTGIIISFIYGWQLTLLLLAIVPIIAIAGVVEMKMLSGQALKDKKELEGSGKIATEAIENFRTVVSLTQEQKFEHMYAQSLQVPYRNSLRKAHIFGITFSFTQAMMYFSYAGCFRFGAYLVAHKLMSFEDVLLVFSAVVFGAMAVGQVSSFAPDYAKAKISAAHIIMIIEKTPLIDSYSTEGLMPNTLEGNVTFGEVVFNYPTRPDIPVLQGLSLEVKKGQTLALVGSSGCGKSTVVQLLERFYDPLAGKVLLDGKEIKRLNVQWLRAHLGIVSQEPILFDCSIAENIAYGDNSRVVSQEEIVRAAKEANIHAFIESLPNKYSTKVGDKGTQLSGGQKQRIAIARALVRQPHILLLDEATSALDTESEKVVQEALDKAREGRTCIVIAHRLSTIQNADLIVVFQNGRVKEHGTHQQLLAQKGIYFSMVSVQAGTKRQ

[2] = target: T1, ATP-dependent translocase ABCB1; experiment: Inhibition of human ABCB1 expressed in mouse L5178Y cells using rhodamine 123 as substrate assessed as ratio of fluorescent intensity in ABCB1 expressing L5178Y cells to wild type L5178Y cells at 10 uM after 20 mins by flow cytometry; assay type: cell-based
L5178Y [3] = experiment: Cytotoxicity against mouse L5178Y cells expressing human ABCB1 after 48 hrs by MTT assay; assay type: ADME, cell-based
L5178Y [4] = experiment: Cytotoxicity against wild type mouse L5178Y cells after 48 hrs by MTT assay; assay type: cell-based
[5] = target: T1, ATP-dependent translocase ABCB1; experiment: Ratio of verapamil to compound for inhibition of human ABCB1 expressed in mouse L5178Y cells using rhodamine 123 as substrate assessed as ratio of fluorescent intensity in ABCB1 expressing L5178Y cells to wild type L5178Y cells at 1 to 10 uM after 20 mins by flow cytometry; assay type: cell-based
L5178Y [6] = experiment: Cytotoxicity against mouse L5178Y cells expressing human ABCB1 by MTT assay; assay type: ADME, cell-based
L5178Y [7] = experiment: Cytotoxicity against wild type mouse L5178Y cells by MTT assay; assay type: cell-based
A2780cisR = experiment: Induction of ABCB1/2 expression in human A2780cisR cells at 10 uM after 72 hrs by Western blot analysis; assay type: functional, cell-based
Homo sapiens [8] = species: Homo sapiens; experiment: Induction of ABCB1 expression in human EPG85-257RDB cells at 10 uM after 72 hrs by Western blot analysis in presence of daunorubicin; assay type: functional, cell-based
EPG85-257P [9] = experiment: Induction of ABCB1 expression in human EPG85-257P cells at 10 uM after 72 hrs by Western blot analysis; assay type: functional, cell-based
Homo sapiens [10] = species: Homo sapiens; experiment: Induction of ABCB1 expression in human EPG85-257RDB cells at 10 uM after 72 hrs by Western blot analysis; assay type: functional, cell-based
EPG85-257P [11] = experiment: Induction of ABCB1 expression in human EPG85-257P cells at 10 uM after 72 hrs by Western blot analysis in presence of daunorubicin; assay type: functional, cell-based

Ratio [1]: 2.96 | Ratio [2]: 10.5
Compound: CCOC(=O)C1=CN(Cc2ccccc2)c2ccccc2C1c1cc(OC)cc(OC)c1 (stereo not drawn)

Ratio [1]: 3.42 | Ratio [2]: 12.77 | Ratio [5]: 2.5
Compound: CCOC(=O)C1=CN(Cc2ccccc2)c2ccccc2C1c1ccc(OC)c(OC)c1 (stereo not drawn)
Activity (L5178Y [3]): Non-toxic | Activity (L5178Y [4]): Non-toxic | IC50 (L5178Y [6]): > 160 µM | IC50 (L5178Y [7]): > 160 µM

Ratio [1]: 2.41 | Ratio [2]: 15.84
Compound: CCOC(=O)C1=CN(Cc2ccc(OC)cc2)c2ccccc2C1c1ccc(OC)c(OC)c1 (stereo not drawn)

Ratio [1]: 2.98 | Ratio [2]: 15.86
Compound: CCOC(=O)C1=CN(Cc2cccc(OC)c2)c2ccccc2C1c1ccc(OC)c(OC)c1 (stereo not drawn)
Activity (A2780cisR): inactive | Activity (Homo sapiens [8]): inactive | Activity (EPG85-257P [9]): inactive | Activity (L5178Y [3]): Non-toxic | Activity (L5178Y [4]): Non-toxic | Activity (Homo sapiens [10]): inactive | IC50 (L5178Y [6]): > 160 µM | IC50 (L5178Y [7]): > 160 µM | Activity (EPG85-257P [11]): inactive

Ratio [1]: 2.26 | Ratio [2]: 9.68
Compound: CCOC(=O)C1=CN(Cc2cccc(OC)c2)c2ccccc2C1c1cccc(OC)c1 (stereo not drawn)

Continued, compound first:

Compound: CCOC(=O)C1=CN(Cc2cccc(OC)c2)c2ccccc2C1c1cc(OC)cc(OC)c1 (stereo not drawn)
Ratio [1]: 2.71 | Ratio [2]: 13.11

Compound: CCOC(=O)C1=CN(Cc2ccc(OC)cc2)c2ccccc2C1c1cccc(OC)c1 (stereo not drawn)
Ratio [1]: 2.03 | Ratio [2]: 10.34

Compound: CCOC(=O)C1=CN(Cc2ccccc2)c2ccccc2C1c1ccccc1 (stereo not drawn)
Ratio [1]: 1.48 | Ratio [2]: 4.72

Compound: CCOC(=O)C1=CN(Cc2ccc(OC)cc2)c2ccccc2C1c1ccc(OC)cc1 (stereo not drawn)
Ratio [1]: 2.55 | Ratio [2]: 13.66

Compound: COc1ccc(CCN(C)CCCC(C#N)(c2ccc(OC)c(OC)c2)C(C)C)cc1OC (stereo not drawn) [VERAPAMIL]
Ratio [1]: 1.46 | Ratio [2]: 4.98

Compound: CCOC(=O)C1=CN(Cc2cccc(OC)c2)c2ccccc2C1c1ccc(OC)cc1 (stereo not drawn)
Ratio [1]: 2.23 | Ratio [2]: 9.95

Compound: CCOC(=O)C1=CN(Cc2ccc(OC)cc2)c2ccccc2C1c1cc(OC)cc(OC)c1 (stereo not drawn)
Ratio [1]: 3.63 | Ratio [2]: 13.36
